According to patent US8778913B2, “Antimicrobial compositions for treating microbial infections” (priority 2006, dated 2014):
Read-outs that look alike come from different tables or passages of the source.

What was measured:
[1] = test system: S. aureus; assay: Hydrogen peroxide susceptibility assay; format: cell-based, Staphylococcus aureus; details: after incubation with 100 μM; vs PBS control
Description: (§1) Tests for susceptibility to oxidants were performed either in PBS (S. aureus) or THB (S. pyogenes). Hydrogen peroxide (H2O2) was added to 1.5% final concentration, […] bacteria incubated at 37° C. for 1 h, then 1,000 U/ml of catalase (Sigma) added to quench residual H2O2. Dilutions were plated on THA for enumeration of surviving cfu. For the singlet oxygen assay, 10^8 S. aureus or 4×10^8 S. pyogenes were incubated at 37° C. in individual wells of a 24-well culture plate in the presence or absence of 1-6 μg/ml methylene blue and situated exactly 10 cm from a 100-watt light source. Bacterial viability was assessed after 1-3 h by plating dilutions on THA.

[2] = test system: SF-268; assay: Growth of human cell line SF-268; format: cell-based
Description: (§2) Inhibition of staphyloxanthin biosynthesis by formula III could represent a purely virulence factor-based therapy for S. aureus infection. […] However, after incubation with 100 μM formula III, the resulting non-pigmented S. aureus were ˜15-fold more susceptible to killing by 1.5% hydrogen peroxide and ˜4-fold less able to survive in freshly isolated human whole blood than were normally pigmented S. aureus treated with PBS control. As expected, formula III had no effect on the growth of three human cell lines (MCF-7, NCI-H460 and SF-268) since there only cholesterol biosynthesis is targeted, and cholesterol is generally abundant in serum (or diet).

[3] = test system: S. aureus; assay: S. aureus growth inhibition in culture; format: cell-based, Staphylococcus aureus
Description: The compound of Formula III was prepared as described in Magnin et al., α-Phosphonosulfonic acids: Potent and selective inhibitors of squalene synthase, J. Med. Chem. 39 (1996) 657-660, and tested in S. aureus growth inhibition and in pigment formation.
(§3) Wild-type S. aureus strain (Pig1), isolated from the skin of a child with atopic dermatitis. Streptococcus pyogenes strain 5448 is a well-characterized serotype M1T1 clinical isolate. CD1 and C57Bl/6 mice were purchased from Charles River. The gp91^Phos−/− mice were bred at the Veteran's Administration Medical Center, San Diego and maintained on trimethoprim/sulfamethoxazole prophylaxis until 3 d prior to experiments. S. aureus and S. pyogenes were propagated in Todd-Hewitt broth (THB) or on THB agar (Difco, Detroit, Mich.). Unless otherwise indicated, all experiments were performed with bacteria derived from S. aureus 36-48 h stationary phase cultures or S. pyogenes 24 h stationary phase cultures, a point when pigmentation phenotypes were readily apparent.
Inhibition of staphyloxanthin biosynthesis by formula III could represent a purely virulence factor-based therapy for S. aureus infection. […]

[4] = test system: staphyloxanthin biosynthesis; assay: S. aureus pigment (staphyloxanthin) formation; format: cell-based, Staphylococcus aureus; details: for IC50: Staphylococcus aureus
Excerpt: as §3
A series of known SQS inhibitors were tested for inhibition of staphyloxanthin biosynthesis.

[5] = test system: S. aureus; assay: Systemic (intraperitoneal) S. aureus challenge in mice; format: in vivo, mouse
Description: Here cfu counts are measured in the kidneys.
0/6 mice treated with the compound of Formula III had detectable bacteria in either organ.
Given the in vitro abilities of formula III treatment to increase S. aureus susceptibility to oxidants and blood (neutrophil-mediated) clearance, in vivo testing was performed. Under intraperitoneal challenge one group of mice (n=14) was treated with […] b.i.d. (days −1, 0, 1 and 2), and a second group (n=13) with equivalent volume injections of PBS control.

[6] = test system: S. aureus; assay: In vivo mouse model of S. aureus skin infection
Description: Ten to 16 week old CD-1 or gp91^Phox−/− mice were injected subcutaneously in one flank (chosen randomly) with the bacterial test strain, and simultaneously in the opposite flank with a different strain for direct comparison. Bacterial cultures were washed, diluted and resuspended in PBS mixed 1:1 with sterile Cytodex beads (Amersham) at the specified inoculum, following an established protocol for generating localized S. aureus and S. pyogenes subcutaneous infection. Lesion size, as assessed by the maximal length×width of the developing ulcers, was recorded daily. Cumulative lesion size represents the total sum of lesion sizes from all animals in each treatment group on a given day. At day 8 (S. aureus) or day 5 (S. pyogenes), animals were euthanized, skin lesions excised, homogenized in PBS, and plated on THA for quantitative culture.

[7] = test system: NCI-H460; assay: Growth of human cell line NCI-H460; format: cell-based
Description: as §2

[8] = biological target: T1, CrtM (dehydrosqualene synthase) (Staphylococcus aureus, UniProt A9JQL9); assay: Recombinant CrtM enzyme inhibition; format: biochemical, S. aureus
T1 construct: made in house; host or cells: E. coli
T1 sequence (A9JQL9 1-287): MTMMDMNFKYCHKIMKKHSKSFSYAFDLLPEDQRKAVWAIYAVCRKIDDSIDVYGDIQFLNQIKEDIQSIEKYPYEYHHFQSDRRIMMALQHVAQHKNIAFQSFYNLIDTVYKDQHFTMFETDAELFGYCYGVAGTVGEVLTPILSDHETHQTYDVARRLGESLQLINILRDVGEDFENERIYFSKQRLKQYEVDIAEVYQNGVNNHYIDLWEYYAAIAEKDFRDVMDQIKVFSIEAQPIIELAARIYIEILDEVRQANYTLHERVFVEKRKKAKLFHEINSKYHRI
Description: A series of known SQS inhibitors were tested for inhibition of staphyloxanthin biosynthesis. […] Since Formula III (and its analogs) have been advanced through Phase II human clinical trials as cholesterol-lowering agents, the agent is clearly of potential interest as a new lead compound inhibiting staphyloxanthin virulence factor formation in S. aureus.

[9] = test system: S. aureus; assay: Whole blood killing assay; format: cell-based, Staphylococcus aureus
Description: Bacteria were washed twice in PBS, diluted to an inoculum of 10^4 cfu in 25 μl PBS, and mixed with 75 μl of freshly drawn human or mouse blood in heparinized tubes. The tubes were incubated at 37° C. for 4 h with agitation, at which time dilutions were plated on THA for enumeration of surviving cfu.

[10] = test system: MCF-7; assay: Growth of human cell line MCF-7; format: cell-based
Description: as §2

[11] = test system: S. aureus; assay: Singlet oxygen susceptibility assay; format: cell-based, Staphylococcus aureus
Description: as §1

[12] = test system: staphyloxanthin biosynthesis; details: earlier report; cited from earlier work

Compound: O=P([O-])([O-])C(CCCc1cccc(Oc2ccccc2)c1)S(=O)(=O)[O-].[K+].[K+].[K+] (racemic) [Formula III]
- increase in susceptibility to killing by 1.5% hydrogen peroxide [1]: ~15 fold
- effect on growth of human cell line [2]: no effect
- effect on cell growth ([3]; S. aureus growth inhibition): no detectable effect
- effect on S. aureus growth characteristics or survival in culture ([3]; up to 2 mM, through 48 hr): did not affect
- effect on pigment formation [4]: potent effect
- IC50 ([4]; 48 h, after 2 days at 37° C. with shaking (Table 1 title), read-out: IC50 (concentration for 50% pigment formation)): ~2000 nM
- IC50 ([4]; read-out: IC50, inhibition of staphyloxanthin biosynthesis): ~1000 nM
- mice with cfus below the detection threshold (kidneys) ([5]; 0.5 mg b.i.d. days −1, 0, 1, 2, sacrifice at 72 h): 8/13
- S. aureus bacterial counts in the kidneys vs control group ([5]; 0.5 mg b.i.d. days −1, 0, 1, 2, sacrifice at 72 h, P<0.001): significantly lower
- mice with detectable bacteria in the spleen ([5]; after 4 days (FIG. 12A)): 0/6
- mice with detectable bacteria in the kidneys ([5]; after 4 days (FIG. 12B)): 0/6
- lesion size ([6]; 200 μM (FIG. 9A)): major decrease
- ill effects in mice ([6]; 200 μM or 1000 μM): no apparent ill effects
- lesion size ([6]; 1000 μM (FIG. 9B)): major decrease
- effect on growth of human cell line [7]: no effect
- IC50 ([8]; S. aureus enzyme expressed in E. coli): 600 nM
- Ki ([8]; corresponding to the IC50): ~1.5 nM
- ED50, whole blood killing of S. aureus ([9]; FIG. 8): ~20000 nM
- decrease in ability to survive in freshly isolated human whole blood ([9]; after incubation with 100 μM, vs PBS control): ~4 fold
- enhancement in whole blood killing of S. aureus ([9]; at 40 μM (FIG. 8)): ~3 fold
- effect on growth of human cell line [10]: no effect

Compound: CCCC(C(=O)OCCN(CC)CC)(c1ccccc1)c1ccccc1 [SKF 525-A, 2-diethylaminoethyl-2,2-diphenyl-valerate, reference compound]
- susceptibility to singlet oxygen killing ([11]; WT S. aureus (FIG. 4b)): dose-dependent increase
- effect on oxidant susceptibility of ΔCrtM mutant ([11]; ΔCrtM mutant control): no significant effects
- pigment production in WT S. aureus ([4]; WT strain grown in presence of agent (FIG. 4a)): dose-dependent decrease
- pigment formation in S. aureus (previously shown) [12]: inhibit pigment formation
- ability of WT S. aureus to survive in human whole blood ([9]; WT S. aureus (FIG. 4c)): decrease
- effect on blood survival of ΔCrtM mutant ([9]; ΔCrtM mutant control): no significant effects
